Laboratory results from US20240180937A1, “CYTOKINE PRODUCTION SUPPRESSING COMPOSITION CONTAINING D-ALLOSE AS ACTIVE COMPONENT, AND METHOD OF TREATING OR PREVENTING DISEASE ASSOCIATED WITH CYTOKINE OVERPRODUCTION USING SAME” (NATIONAL UNIVERSITY CORPORATION KAGAWA UNIVERSITY, priority 2021, published 2024).

How the values were obtained:
Type in all cases: cell-based, C57BL/6N mice
[1] = tested on: plasmacytoid dendritic cells (pDC); test: Cytokine production by plasmacytoid dendritic cells (spleen or bone marrow) after TLR7/TLR9 ligand stimulation, ELISA of culture supernatant; details: for IFN-α production accompanying stimulation of pDCs / IL-12 production accompanying stimulation of pDCs: stimulation with TLR7 ligand poly(U) or TLR9 ligand CpG DNA (D19 and 1668), sugar 0.2 w/v % in glucose-free medium
Protocol: CD317-positive cells were prepared by magnetic bead sorting (MACS) from spleen cells obtained from C57BL/6N mice (Clea Japan, Inc.), as plasmacytoid dendritic cells (pDC) (FIG. 1(A)). CD11c-positive cells in the CD317-negative cell fraction were then prepared using magnetic beads, as conventional dendritic cells (CDC) (FIG. 1(A)). CD317-positive cells were also prepared using magnetic beads from bone marrow cells obtained from C57BL/6N mice (Clea Japan, Inc.), as bone marrow pDCs (FIG. 1(B)).
The obtained pDCs and cDCs were inoculated into a 96-well plate using glucose-free PRMI1640 medium with addition of 10 v/v % FCS, 100 μM 2-mercaptoethanol, 50 μg/ml streptomycin and 50 units/ml penicillin G, after which a rare sugar (D-allose, D-allulose or L-allulose) or D-glucose or D-fructose, was added to a final concentration of 0.2 w/v %.
The pDCs were stimulated with non-stimulating medium and TLR7 ligand (polyuridylic acid at a final concentration of 2.5 μg/ml (Poly(U) (Sigma) mixed with Lipofectamine 2000 (Thermo Fisher Scientific)), 100 nM R848 (InvivoGen), or TLR9 ligand (synthetic DNA (3 μM of D19: 5′-GGtgcatcgatgcagGGGGg-3′ and 0.03 μM of 1668: 5′-[…]-3′ (where uppercase indicates phosphorothioate DNA and lowercase indicates phosphodiester DNA))), and the IFN-α in the culture supernatant after 20 to 24 hours was measured using ELISA by InvivoGen while the IL-12p40 was measured using ELISA by Biolegend.

[2] = tested on: intraperitoneal macrophages; test: TNF-α and nitric oxide production by intraperitoneal macrophages after LPS/IFN-γ stimulation; details: 100 ng/ml LPS and 5 ng/ml IFN-γ; sugar in the medium; supernatant after 20 to 24 hours; data not shown
Protocol: The obtained pDCs and cDCs were inoculated into a 96-well plate using glucose-free PRMI1640 medium with addition of 10 v/v % FCS, 100 μM 2-mercaptoethanol, 50 μg/ml streptomycin and 50 units/ml penicillin G, after which a rare sugar (D-allose, D-allulose or L-allulose) or D-glucose or D-fructose, was added to a final concentration of 0.2 w/v %. After administering 2 ml of 4 w/v % Brewer thioglycollate medium (Sigma) intraperitoneally to C57BL/6N mice, the intraperitoneal macrophages on the 3rd day were collected and used. After inoculation into the same medium as the DCs, stimulation was with 100 ng/ml of Lipopolysaccharide E. coli O111:B4 (Sigma) and 5 ng/ml of IFN-γ (Biolegend), the TNF-α in the culture supernatant after 20 to 24 hours was measured using ELISA by Biolegend and the nitric oxide was measured using a NO2/NO3 Assay Kit-C II (Colorimetric) (Griess Reagent Kit) (Dojindo Laboratories).

[3] = tested on: conventional dendritic cells (cDC); test: Cytokine production by spleen-derived conventional dendritic cells after stimulation, ELISA of culture supernatant
Protocol: CD317-positive cells were prepared by magnetic bead sorting (MACS) from spleen cells obtained from C57BL/6N mice (Clea Japan, Inc.), as plasmacytoid dendritic cells (pDC) (FIG. 1(A)). CD11c-positive cells in the CD317-negative cell fraction were then prepared using magnetic beads, as conventional dendritic cells (CDC) (FIG. 1(A)). CD317-positive cells were also prepared using magnetic beads from bone marrow cells obtained from C57BL/6N mice (Clea Japan, Inc.), as bone marrow pDCs (FIG. 1(B)). The obtained pDCs and cDCs were inoculated into a 96-well plate using glucose-free PRMI1640 medium with addition of 10 v/v % FCS, 100 μM 2-mercaptoethanol, 50 μg/ml streptomycin and 50 units/ml penicillin G, after which a rare sugar (D-allose, D-allulose or L-allulose) or D-glucose or D-fructose, was added to a final concentration of 0.2 w/v %. The cDCs were stimulated with non-stimulating medium, 100 nM of R848 and 1 μM of 1668, and the IL-12p40 in the culture supernatant after 20 to 24 hours was measured using ELISA by Biolegend.

[4] = supernatant after 20 to 24 hours
[5] = supernatant after 20 to 24 hours, IL-12p40 ELISA

O=C[C@H](O)[C@@H](O)[C@H](O)[C@H](O)CO [D-glucose]
IFN-α production accompanying stimulation of pDCs [1, 4]: not observed | IL-12 production accompanying stimulation of pDCs [1, 5]: not observed

O=C(CO)[C@@H](O)[C@H](O)[C@H](O)CO [D-fructose]
IFN-α production accompanying stimulation of pDCs [1, 4]: not observed | IL-12 production accompanying stimulation of pDCs [1, 5]: not observed | TNF-α production by macrophages upon lipopolysaccharide (LPS) stimulation [2]: not attenuated | nitric oxide production by macrophages upon lipopolysaccharide (LPS) stimulation [2]: not attenuated

O=C[C@H](O)[C@H](O)[C@H](O)[C@H](O)CO [D-allose]
IFN-α production by pDCs after low molecular weight TLR7 ligand stimulation ([1]; low molecular weight TLR7 ligands including R848 (100 nM), sugar 0.2 w/v %, supernatant after 20 to 24 hours): not reduced | IL-12 production by pDCs after low molecular weight TLR7 ligand stimulation ([1]; low molecular weight TLR7 ligands including R848 (100 nM), sugar 0.2 w/v %, supernatant after 20 to 24 hours, IL-12p40 ELISA): not reduced | IFN-α production accompanying stimulation of pDCs [1, 4]: notably attenuated | IL-12 production accompanying stimulation of pDCs [1, 5]: notably attenuated | pDC cytokine production after activation in medium containing D-allose ([1]; summary statement): lowered | IL-12 production by cDCs after CpG DNA (1668) stimulation ([3]; 1 μM 1668, sugar 0.2 w/v %, supernatant after 20 to 24 hours, IL-12p40 ELISA): not lowered | cDC cytokine production after activation in medium containing D-allose ([3]; summary statement): not lowered | TNF-α production by macrophages upon lipopolysaccharide (LPS) stimulation [2]: not attenuated | nitric oxide production by macrophages upon lipopolysaccharide (LPS) stimulation [2]: not attenuated

O=C(CO)[C@@H](O)[C@@H](O)[C@@H](O)CO [L-allulose]
IFN-α production accompanying stimulation of pDCs [1, 4]: not observed | IL-12 production accompanying stimulation of pDCs [1, 5]: not observed | TNF-α production by macrophages upon lipopolysaccharide (LPS) stimulation [2]: not attenuated | nitric oxide production by macrophages upon lipopolysaccharide (LPS) stimulation [2]: not attenuated

O=C(CO)[C@H](O)[C@H](O)[C@H](O)CO [D-allulose]
IFN-α production accompanying stimulation of pDCs [1, 4]: not observed | IL-12 production accompanying stimulation of pDCs [1, 5]: not observed | TNF-α production by macrophages upon lipopolysaccharide (LPS) stimulation [2]: not attenuated | nitric oxide production by macrophages upon lipopolysaccharide (LPS) stimulation [2]: not attenuated
